The results in this text go back to US10392348B2, “2-oxo-3,4-dihydroquinoline compounds as plant growth regulators” (Syngenta Participations AG, priority 2015, dated 2019).

Like-named read-outs stand apart in the source and are kept apart here.

The subject of experiment [1] is corn plants (variety NK OCTET). Nature of the experiment: Reduced plant water use in corn (foliar spray, repeated weighing of pots). The experiment is classed as in vivo. Conditions: Zea mays, corn plants sprayed at 500 μM, average of 6 pots. How it is done: Compounds were tested for their effect on reducing plant water use as follows. The compounds were applied by foliar spray to 12 day old corn plants (variety NK OCTET) grown in controlled environment plant growth chambers. All compounds were applied using an emulsifiable concentrate (EC) formulation that was diluted to the desired concentrations with water containing 0.4% of the adjuvant rape seed methyl ester. Plant water use during the day was assessed by repeated weighing of the pots in which the plants were grown before and after application of the compounds at the indicated times (expressed in days after application (DAA)). The water use data before application was used to correct any differences in water use arising due to non-treatment effects (e.g. due to differences in plant size). The untransformed water use values were subjected to an analysis of covariance, fitting the effect of treatment and using the baseline water use 1 day before application as a covariate. Application of the chemicals (0 DAA) takes place approximately between 08:00 and 09:30 a.m. WU is measured within day time (chamber light is on 06:00 to 20:00) at these timepoints: 0 DAA a.m. (10:30-12:50), 0 DAA p.m. (14:00-19:50), 1 DAA a.m. (07:30-12:50), 1 DAA p.m. (14:00-19:50), 2 DAA a.m. (07:30-12:50) and 2 DAA p.m. (14:00-19:50). The cumulative total WU (0-2.5 DAA) is calculated by summing the WU data mentioned above.

Experiment [2] has as its system soybean plants (variety S20-G7). The experiment is described as follows: Reduced plant water use in soybean (foliar spray, repeated weighing of pots). In kind it is in vivo. Conditions: vs negative control; for change in vivo at 500 µM: Glycine max, foliar, Table B1, sprayed at 500 μM; for % WU 0 DAA AM*: 0 DAA a.m.; for % WU 0DAA PM: 0 DAA p.m.; for % WU 1DAA AM: 1 DAA a.m.; for % WU 1DAA PM: 1 DAA p.m.; for % WU 2 DAA AM: 2 DAA a.m.; for % WU 2 DAA PM: 2 DAA p.m. How it is done:
Compounds were tested for their effect on reducing plant water use as follows. Each compound was dissolved in a blank emulsifiable concentrate (EC) formulation that was then diluted to the desired concentration with water containing additional surfactant (EXTRAVON 1 g/20 L). The compounds were applied by foliar spray to 12 day old soybean plants (variety S20-G7) grown in controlled environment plant growth chambers. Plant water use during the day was assessed by repeated weighing of the pots in which the plants were grown before and after application of the compounds at the indicated times (expressed in days after application (DAA)). The water use data before application was used to correct any differences in water use arising due to non-treatment effects (e.g. due to differences in plant size). The untransformed water use values were subjected to an analysis of covariance, fitting the effect of treatment and using the baseline water use 1 day before application as a covariate.
The results are expressed compared to negative control treatment (diluted EC formulation without active ingredient but with EXTRAVON 1 g/20 L).
Application of the chemicals (0 DAA) takes place approximately between 08:00 and 09:30 a.m. WU is measured within day time (chamber light is on 06:00 to 20:00) at these timepoints: 0 DAA a.m. (10:30-12:50), 0 DAA p.m. (14:00-19:50), 1 DAA a.m. (7:30-12:50), 1 DAA p.m. (14:00-19:50), 2 DAA a.m. (07:30-12:50) and 2 DAA p.m. (14:00-19:50). The cumulative total WU (0-2.5 DAA) is calculated by summing the WU data mentioned above.

Setting [3] is: 0 h, water use during day time vs negative control, 0 DAA a.m. (10:30-12:50), read-out: % WU 0 DAA AM.
[4] abbreviates: 0 h, water use during day time vs negative control, 0 DAA p.m. (14:00-19:50), read-out: % WU 0DAA PM.
The mark [5] stands for this setting: 24 h, water use during day time vs negative control, 1 DAA a.m. (07:30-12:50), read-out: % WU 1DAA AM.
Setting [6] is: 24 h, water use during day time vs negative control, 1 DAA p.m. (14:00-19:50), read-out: % WU 1DAA PM.
Setting [7] is: 48 h, water use during day time vs negative control, 2 DAA a.m. (07:30-12:50), read-out: % WU 2 DAA AM.
Where [8] appears, read: 48 h, water use during day time vs negative control, 2 DAA p.m. (14:00-19:50), read-out: % WU 2 DAA PM.
Where [9] appears, read: 60 h, cumulative total water use 0-2.5 DAA (sum of the time points) vs negative control, read-out: % WU Total 0 to 2.5 DAA.
Setting [10] is: 0 h, 0 DAA a.m. (10:30-12:50), read-out: % WU 0 DAA AM.
[11] abbreviates: 24 h, 1 DAA a.m. (7:30-12:50), read-out: % WU 1DAA AM.
Setting [12] is: 24 h, 1 DAA p.m. (14:00-19:50), read-out: % WU 1DAA PM.
Setting [13] is: 48 h, 2 DAA a.m. (07:30-12:50), read-out: % WU 2 DAA AM.
[14] abbreviates: 48 h, 2 DAA p.m. (14:00-19:50), read-out: % WU 2 DAA PM.
Setting [15] is: 60 h, cumulative total WU (0-2.5 DAA), read-out: % WU Total 0 to 2.5 DAA.

Take `CCCN1C(=O)CCc2cc(CNS(=O)(=O)/C=C/c3ccccc3F)ccc21` [Compound 3.056, (E)-2-(2-fluorophenyl)-N-[(2-oxo-1-propyl-3,4-dihydroquinolin-6-yl)methyl]ethenesulfonamide]: the change in vivo at 500 µM in experiment [1] (setting [3]) is -8.4%; in experiment [1] (setting [4]) it was -2.7%; in experiment [1] (setting [5]), -5.6%; in experiment [1] (setting [6]) it was -4.4%; in experiment [1] (setting [7]) it was -4.7%; in experiment [1] (setting [8]), -3.2%. In experiment [1] (setting [9]), the change in vivo at 500 µM is -4.6%.

Turning to `CCCN1C(=O)CCc2cc(CNS(=O)(=O)CCC)ccc21` [Compound 3.062, N-[(2-oxo-1-propyl-3,4-dihydroquinolin-6-yl)methyl]propane-1-sulfonamide], the change in vivo at 500 µM in experiment [1] (setting [3]) is -17.8%; in experiment [1] (setting [4]) it was -13%; in experiment [1] (setting [5]) it was -13%; in experiment [1] (setting [6]), -9.8%; in experiment [1] (setting [7]), -8.1%; in experiment [1] (setting [8]) it was -6.3%. Also, the change in vivo at 500 µM in experiment [1] (setting [9]) was -10.5%.

As to `C/C=C/CS(=O)(=O)NCc1ccc2c(c1)CCC(=O)N2CCC` [Compound 3.066, (E)-N-[(2-oxo-1-propyl-3,4-dihydroquinolin-6-yl)methyl]but-2-ene-1-sulfonamide], the change in vivo at 500 µM in experiment [1] (setting [3]) is -10.8%; in experiment [1] (setting [4]), -7.1%; in experiment [1] (setting [5]) it was -7.1%; in experiment [1] (setting [6]), -6.8%; in experiment [1] (setting [7]) it was -4.7%; in experiment [1] (setting [8]), -5.5%. Further, in experiment [1] (setting [9]), the change in vivo at 500 µM was -6.4%.

Turning to `C=CCS(=O)(=O)NCc1ccc2c(c1)CCC(=O)N2CCC` [Compound 3.071, N-[(2-oxo-1-propyl-3,4-dihydroquinolin-6-yl)methyl]prop-2-ene-1-sulfonamide], the change in vivo at 500 µM in experiment [1] (setting [3]) is -11.2%; in experiment [1] (setting [4]) it was -6.5%; in experiment [1] (setting [5]), -4.5%; in experiment [1] (setting [6]) it was -4.7%; in experiment [1] (setting [7]) it was -3.5%; in experiment [1] (setting [8]), -2.4%. In experiment [1] (setting [9]), the change in vivo at 500 µM was -4.9%.

In the case of `CCCN1C(=O)CCc2cc(C3(NS(=O)(=O)c4ccc(F)cc4)CC3)ccc21` [Compound 15.009, 4-fluoro-N-[1-(2-oxo-1-propyl-3,4-dihydroquinolin-6-yl)cyclopropyl]benzenesulfonamide], the change in vivo at 500 µM in experiment [1] (setting [3]) is -10.7%; in experiment [1] (setting [4]), -7.8%; in experiment [1] (setting [5]), -8.7%; in experiment [1] (setting [6]), -5.8%; in experiment [1] (setting [7]) it was -5.4%; in experiment [1] (setting [8]), -5.7%. The change in vivo at 500 µM in experiment [1] (setting [9]) is -7.1%.

Consider `CC1CC(=O)N(CC2CC2)c2ccc(CNS(=O)(=O)c3ccccc3)cc21` (centres unmarked) [Compound 24.001, N-[[1-(cyclopropylmethyl)-4-methyl-2-oxo-3,4-dihydroquinolin-6-yl]methyl]benzenesulfonamide], for which the change in vivo at 500 µM in experiment [2] (setting [10]) is -35.3%; in experiment [2] (setting [11]), -42.8%; in experiment [2] (setting [12]) it was -42.8%; in experiment [2] (setting [13]) it was -39.9%; in experiment [2] (setting [14]), -38.3%; in experiment [2] (setting [15]) it was -40.6%.

Take `C=CCN1C(=O)CC(C)c2cc(CNS(=O)(=O)c3ccccc3)ccc21` (centres unmarked) [Compound 25.001, N-[(1-allyl-4-methyl-2-oxo-3,4-dihydroquinolin-6-yl)methyl]benzenesulfonamide]: the change in vivo at 500 µM in experiment [2] (setting [10]) is -28.2%; in experiment [2] (setting [11]) it was -41%; in experiment [2] (setting [12]) it was -39.6%; in experiment [2] (setting [13]), -38.1%; in experiment [2] (setting [14]), -36.7%; in experiment [2] (setting [15]) it was -37.9%.

In the case of `CCCN1C(=O)CCc2cc(NS(=O)(=O)Cc3ccc(C)cc3)ccc21` [Quinabactin, quinabactin, reference compound], in experiment [2] (Table B2, rate 31.25 uM), the “% WU 0 DAA AM*” value is −0.3%, the “% WU 0DAA PM” value is reported as −0.3%, the “% WU 1DAA AM” value is on record as 0.2% and the “% WU 1DAA PM” value was −0.1%. For the same molecule, in experiment [2] (Table B2, rate 31.25 uM), the “% WU 2 DAA AM” value is −0.9% and the “% WU 2 DAA PM” value is on record as −1.3%. For the same molecule, in experiment [2] (Table B2, rate 31.25 uM, cumulative total WU (0-2.5 DAA)), the “% WU Total 0 to 2.5 DAA” value is reported as −0.7%. Moreover, in experiment [2] (Table B2, rate 125 uM), the “% WU 0 DAA AM*” value is recorded as −15.3%, the “% WU 0DAA PM” value was −5.7%, the “% WU 1DAA AM” value was 1.8% and the “% WU 1DAA PM” value worked out at 2.9%. Also, in experiment [2] (Table B2, rate 125 uM), the “% WU 2 DAA AM” value was 2.4% and the “% WU 2 DAA PM” value is reported as 1.1%. In addition, the “% WU Total 0 to 2.5 DAA” value in experiment [2] (Table B2, rate 125 uM, cumulative total WU (0-2.5 DAA)) is on record as −0.5%. Moreover, in experiment [2] (Table B2, rate 500 uM), the “% WU 0 DAA AM*” value is on record as −42.0%, the “% WU 0DAA PM” value is listed as −41.2%, the “% WU 1DAA AM” value is reported as −18.6% and the “% WU 1DAA PM” value is −10.8%. For the same molecule, in experiment [2] (Table B2, rate 500 uM), the “% WU 2 DAA AM” value was −3.8% and the “% WU 2 DAA PM” value is on record as −2.9%. Moreover, the “% WU Total 0 to 2.5 DAA” value in experiment [2] (Table B2, rate 500 uM, cumulative total WU (0-2.5 DAA)) is on record as −16.9%.
